Values after ≈ are worked out from the molar mass of the structure shown. Like-named read-outs stand apart in the source and are kept apart here. Marks after values point to notes of the source that are not given here.
What was measured:
[1] = tested on: Pseudomonas aeruginosa CFA 24-1, clinical mucoid strain (R80); assay: MIC assay, CAMHB with alginate oligomer, no visible growth; assay type: cell-based; conditions: Pseudomonas aeruginosa, Table 1, R80, read-out: MIC
[2] = tested on: Pseudomonas aeruginosa MDR R22 from China (V1); assay: as above; assay type: cell-based; conditions: Pseudomonas aeruginosa, Table 1, V1 MDR R22 PA, read-out: MIC
Source text: (§1) The study described in Example 1 was repeated with the following strains of bacteria and antibiotics as detailed in Tables 4, 5 and 6.

[3] = tested on: Acinetobacter baumannii MDR ACB from Libya (V4); assay: as above; assay type: cell-based; conditions: for MIC: Acinetobacter baumannii, read-out: MIC
Source text: as §1
The study described in Example 1 was repeated with the following strains of Acinetobacter baumannii, antibiotics and M-block alginate oligomer in place of OligoG CF-5/20 as detailed in Table 7. The M-block oligomer is 100% M with a DPn of 15 to 18,

[4] = tested on: V9 (Egypt) Acinetobacter baumannii; assay: as above; assay type: cell-based; conditions: Table 5, V9 MDR Acin. baum
[5] = tested on: V10 (Egypt) Acinetobacter lwoffii; assay: as above; assay type: cell-based; conditions: Table 5, V10 MDR Acin. lwoff
V11 5702 (Wales) E. coli = assay: as above; assay type: cell-based; conditions: Table 5, V11 MDR E.coli
[6] = tested on: V23 1322 Burkholderia cepacia; assay: as above; assay type: cell-based
[7] = tested on: strains of Klebsiella pneumoniae displaying MDR phenotypes; assay: MIC-assay, Mueller-Hinton broth with G-block alginate, 384-well, OD600 (Table 10); assay type: cell-based
Source text: Minimum inhibitory concentration (MICs) of different antibiotics for strains of Klebsiella pneumoniae displaying MDR phenotypes in the presence of varying concentrations of OligoCF-5/20 (0-10%). (MIC values are expressed in μg ml^−1).

MDR Providencia stuartii = assay: MIC-assay, Mueller-Hinton broth with G-block alginate, 384-well, OD600 (Table 11); assay type: cell-based; conditions: Providencia stuartii (IR57 India, V7) MDR
Source text: (§2) Minimum inhibitory concentration (MICs) of different antibiotics for strains of E. coli and Providencia stuartii displaying MDR phenotypes in the presence of varying concentrations of OligoCF-5/20 (0-10%). (MIC values are expressed in μg ml^−1).

[8] = tested on: strains of E. coli displaying MDR phenotypes; assay: as above; assay type: cell-based; conditions: Escherichia coli, Escherichia coli (5702, Wales, V11) MDR
Source text: as §2

[9] = tested on: Staphylococcus aureus (MRSA) U50; assay: MIC-assay, Mueller-Hinton broth with G-block alginate, 384-well, OD600 (Table 12); assay type: cell-based; conditions: MRSA 1040s, U50 MDR
Source text: Minimum inhibitory concentration (MICs) of different antibiotics for strains of Streptococcus oralis and Staphylococcus aureus (MRSA) displaying MDR phenotypes in the presence of varying concentrations of OligoCF-5/20 (0-10%). (MIC values are expressed in μg ml^−1).

[10] = tested on: Burkholderia cepacia (1322, V23); assay: MIC-assay, Mueller-Hinton broth with G-block alginate, 384-well, OD600
[11] = tested on: Acinetobacter baumannii (MDR ACB, Libya, V4); assay: as above
[12] = G-block (OligoCF-5/20) 0%, read-out: MIC
[13] = G-block (OligoCF-5/20) 2%, read-out: MIC

C[C@H]1[C@H](NC(=O)/C(=N\OC(C)(C)C(=O)O)c2csc(N)n2)C(=O)N1S(=O)(=O)O [Aztreonam]
MIC ([1]; OligoCF-5/20 0G): < 1 µg/mL
MIC ([1]; OligoCF-5/20 +2% G): < 1 µg/mL
MIC ([1]; OligoCF-5/20 +6% G): < 1 µg/mL
MIC ([1]; OligoCF-5/20 +10% G): < 1 µg/mL
MIC ([2]; OligoCF-5/20 0G): 32 µg/mL (≈ 73.5 µM)
MIC ([2]; OligoCF-5/20 +2% G): 16 µg/mL (≈ 36.7 µM)
MIC ([2]; OligoCF-5/20 +6% G): < 4 µg/mL
MIC ([2]; OligoCF-5/20 +10% G): < 4 µg/mL
MIC ([3]; Table 1, V4 ACB (Libya), OligoCF-5/20 0G): 1020 µg/mL (≈ 2350 µM)
MIC ([3]; Table 1, V4 ACB (Libya), OligoCF-5/20 +2% G): 512 µg/mL (≈ 1180 µM)
MIC ([3]; Table 1, V4 ACB (Libya), OligoCF-5/20 +6% G): 256 µg/mL (≈ 588 µM)
MIC ([3]; Table 1, V4 ACB (Libya), OligoCF-5/20 +10% G): 128 µg/mL (≈ 294 µM)
MIC ([3]; Table 7, V4 MDR Acin baum (Libya), M-block oligomer 0M): 2050 µg/mL (≈ 4700 µM)
MIC ([3]; Table 7, V4 MDR Acin baum (Libya), M-block oligomer +2% M): 512 µg/mL (≈ 1180 µM)
MIC ([3]; Table 7, V4 MDR Acin baum (Libya), M-block oligomer +6% M): 256 µg/mL (≈ 588 µM)
MIC ([3]; Table 7, V4 MDR Acin baum (Libya), M-block oligomer +10% M): 64 µg/mL (≈ 147 µM)
effect in combination with alginate oligomers ([3]; Example 1, Acinetobacter baumannii isolate): more positive effect
MIC ([4]; Acinetobacter baumannii, OligoCF-5/20 0G, read-out: MIC): > 512 µg/mL
MIC ([4]; OligoCF-5/20 +2% G): 512^† μg/ml
MIC ([4]; OligoCF-5/20 +6% G): 256^† μg/ml
MIC ([4]; OligoCF-5/20 +10% G): 128^† μg/ml
MIC ([5]; Acinetobacter lwoffii, OligoCF-5/20 0G, read-out: MIC): 32 µg/mL (≈ 73.5 µM)
MIC ([5]; OligoCF-5/20 +2% G): 16^† μg/ml
MIC ([5]; OligoCF-5/20 +6% G): 4^† μg/ml
MIC ([5]; OligoCF-5/20 +10% G): 1^† μg/ml
MIC (V11 5702 (Wales) E. coli; Escherichia coli, OligoCF-5/20 0G, read-out: MIC): 256 µg/mL (≈ 588 µM)
MIC (V11 5702 (Wales) E. coli; OligoCF-5/20 +2% G): 256 µg/mL (≈ 588 µM)
MIC (V11 5702 (Wales) E. coli; OligoCF-5/20 +6% G): 256 µg/mL (≈ 588 µM)
MIC (V11 5702 (Wales) E. coli; OligoCF-5/20 +10% G): 256 µg/mL (≈ 588 µM)
MIC ([6]; Burkholderia cepacia, Table 5, V23 MDR Burk cep, OligoCF-5/20 0G, read-out: MIC): > 512 µg/mL
MIC ([6]; Burkholderia cepacia, Table 6, V23, Experiment 1 (18-03-10), OligoCF-5/20 0G, read-out: MIC): > 4100 µg/mL
MIC ([6]; Burkholderia cepacia, Table 6, V23, Experiment 2 (18-03-10), OligoCF-5/20 0G, read-out: MIC): > 4100 µg/mL
MIC ([6]; Burkholderia cepacia, Table 6, V23, Experiment 3 (19-03-10), OligoCF-5/20 0G, read-out: MIC): > 4100 µg/mL
MIC ([6]; Table 5, V23 MDR Burk cep, OligoCF-5/20 +2% G): >512 µg/mL
MIC ([6]; Table 5, V23 MDR Burk cep, OligoCF-5/20 +6% G): 512^† μg/ml
MIC ([6]; Table 5, V23 MDR Burk cep, OligoCF-5/20 +10% G): 128^† μg/ml
MIC ([6]; Table 6, V23, Experiment 1 (18-03-10), OligoCF-5/20 +2% G): >4096 µg/mL
MIC ([6]; Table 6, V23, Experiment 1 (18-03-10), OligoCF-5/20 +6% G): 1024^† μg/ml
MIC ([6]; Table 6, V23, Experiment 1 (18-03-10), OligoCF-5/20 +10% G): 256^† μg/ml
MIC ([6]; Table 6, V23, Experiment 2 (18-03-10), OligoCF-5/20 +2% G): >4096 µg/mL
MIC ([6]; Table 6, V23, Experiment 2 (18-03-10), OligoCF-5/20 +6% G): 1024^† μg/ml
MIC ([6]; Table 6, V23, Experiment 2 (18-03-10), OligoCF-5/20 +10% G): 512^† μg/ml
MIC ([6]; Table 6, V23, Experiment 3 (19-03-10), OligoCF-5/20 +2% G): >4096 µg/mL
MIC ([6]; Table 6, V23, Experiment 3 (19-03-10), OligoCF-5/20 +6% G): 1024^† μg/ml
MIC ([6]; Table 6, V23, Experiment 3 (19-03-10), OligoCF-5/20 +10% G): 128^† μg/ml
MIC ([7]; Klebsiella pneumoniae (5712, Wales, V12) MDR, G-block (OligoCF-5/20) 0%, read-out: MIC): 4 µg/mL (≈ 9.19 µM)
MIC ([7]; Klebsiella pneumoniae (5712, Wales, V12) MDR, G-block (OligoCF-5/20) 2%, read-out: MIC): 4 µg/mL (≈ 9.19 µM)
MIC ([7]; Klebsiella pneumoniae (5712, Wales, V12) MDR, G-block (OligoCF-5/20) 6%, read-out: MIC): 4 µg/mL (≈ 9.19 µM)
MIC ([7]; Klebsiella pneumoniae (5712, Wales, V12) MDR, G-block (OligoCF-5/20) 10%, read-out: MIC): 4 µg/mL (≈ 9.19 µM)
MIC ([7]; Klebsiella pneumoniae (IR25, India, V6) MDR, G-block (OligoCF-5/20) 2%, read-out: MIC): 256 µg/mL (≈ 588 µM)
MIC ([7]; Klebsiella pneumoniae (IR25, India, V6) MDR, G-block (OligoCF-5/20) 6%): 128 µg/mL (≈ 294 µM)
MIC ([7]; Klebsiella pneumoniae (IR25, India, V6) MDR, G-block (OligoCF-5/20) 10%, read-out: MIC): 64 µg/mL (≈ 147 µM)
MIC ([7]; Klebsiella pneumoniae (K3, India, V8) MDR, G-block (OligoCF-5/20) 2%, read-out: MIC): 256 µg/mL (≈ 588 µM)
MIC ([7]; Klebsiella pneumoniae (K3, India, V8) MDR, G-block (OligoCF-5/20) 6%): 128 µg/mL (≈ 294 µM)
MIC ([7]; Klebsiella pneumoniae (K3, India, V8) MDR, G-block (OligoCF-5/20) 10%): 128 µg/mL (≈ 294 µM)
MIC (MDR Providencia stuartii; G-block (OligoCF-5/20) 0%): > 1020 µg/mL
MIC (MDR Providencia stuartii; G-block (OligoCF-5/20) 2%): > 1020 µg/mL
MIC (MDR Providencia stuartii; G-block (OligoCF-5/20) 6%): > 1020 µg/mL
MIC (MDR Providencia stuartii; G-block (OligoCF-5/20) 10%): > 1020 µg/mL
MIC [8, 12]: 256 µg/mL (≈ 588 µM)
MIC [8, 13]: 256 µg/mL (≈ 588 µM)
MIC ([8]; G-block (OligoCF-5/20) 6%): 128 µg/mL (≈ 294 µM)
MIC ([8]; G-block (OligoCF-5/20) 10%, read-out: MIC): 64 µg/mL (≈ 147 µM)
MIC [9, 12]: 1020 µg/mL (≈ 2350 µM)
MIC [9, 13]: 1020 µg/mL (≈ 2350 µM)
MIC ([9]; G-block (OligoCF-5/20) 6%): 512 µg/mL (≈ 1180 µM)
MIC ([9]; G-block (OligoCF-5/20) 10%): 512 µg/mL (≈ 1180 µM)
MIC ([10]; Table 8, G-block (OligoCF-5/20) 0%): > 16 µg/mL
MIC ([10]; Table 8, G-block (OligoCF-5/20) 2%): > 16 µg/mL
MIC ([10]; Table 8, G-block (OligoCF-5/20) 6%): > 16 µg/mL
MIC ([10]; Table 8, G-block (OligoCF-5/20) 10%): > 16 µg/mL
MIC ([11]; Table 9, G-block (OligoCF-5/20) 0%): 4 µg/mL (≈ 9.19 µM)
MIC ([11]; Table 9, G-block (OligoCF-5/20) 2%): 4 µg/mL (≈ 9.19 µM)
MIC ([11]; Table 9, G-block (OligoCF-5/20) 6%): 1 µg/mL (≈ 2.3 µM)
MIC ([11]; Table 9, G-block (OligoCF-5/20) 10%): 0.5 µg/mL (≈ 1.15 µM)

Source: patent US9801901B2, “Alginate oligomers for use in overcoming multidrug resistance in bacteria” (priority 2009, dated 2017)
